Literature values as cited in US9333159B2, “Topical DNA repair composition” (PHOTOMEDEX, INC., priority 2011, dated 2016).

Conditions: known super antioxidants; USDA database value prevails where different

For `C[N+](C)(C)[C@@H](Cc1c[nH]c(=S)[nH]1)C(=O)[O-]` [ergothioneine], the ORAC score is listed as 61,000.
